# According to patent US20220281846A1, “COMPOUNDS AND COMPOSITIONS FOR THE TREATMENT OF RESPIRATORY DISEASES” (THE UNIVERSITY OF MELBOURNE, priority 2018, published 2022):
# Several values for one entry are separate records, joined by “and”; a condition that tells them apart may be missing. Identical values can stand only once. Like-named read-outs stand apart in the source and are kept apart here.
# Tests used:
# [1] = In vitro metabolic stability, human liver microsomes; assay type: in vitro ADME
# Method: Human Microsomal Stability of Compounds of the Invention
# In Vitro Metabolic Stability
# Incubation: The metabolic stability assay was performed by incubating each test compound in human liver microsomes at 37° C. and a protein concentration of 0.4 mg/mL. The metabolic reaction was initiated by the addition of an NADPH-regenerating system and quenched at various time points over a 60 minute incubation period by the addition of acetonitrile containing diazepam as internal standard. Control samples (containing no NADPH) were included (and quenched at 2, 30 and 60 minutes) to monitor for potential degradation in the absence of cofactor. The human liver microsomes used in this experiment were supplied by XenoTech, lot #1410230. Microsomal incubations were performed at a substrate concentration of 1 μM. Data analysis: Species scaling factors from Ring et al. (2011) JPharmSci, 100:4090-4110 were used to convert the in vitro CLint (μL/min/mg) to an in vivo CLint(mL/min/kg). Hepatic blood clearance and the corresponding hepatic extraction ratio (EH) were calculated using the well stirred model of hepatic extraction in each species, according to the “in vitro T1/2” approach described in Obach (1999) DrugMetab. Dispos. 27:1350-1359. The EH was then used to classify compounds as low(<0.3), intermediate (0.3-0.7), high (0.7-0.95) or very high (>0.95) extraction compounds. Predicted in vivo clearance values have not been corrected for microsomal or plasma protein binding. Species scaling calculations are based on two assumptions: 1) NADPH-dependent oxidative metabolism predominates over other metabolic routes (i.e. direct conjugative metabolism, reduction, hydrolysis, etc.), and; 2) rates of metabolism and enzyme activities in vitro are truly reflective of those that exist in vivo. If significant non-NADPH-mediated degradation is observed in microsome control samples, then assumption (1) is invalid and predicted clearance parameters are therefore not reported.
# [2] = Mouse pharmacokinetics, IV and oral administration; assay type: in vivo; conditions: male C57BL/6 mice; for concentration at 0.017 h / concentration at 0.033 h / concentration at 0.083 h / concentration at 0.25 h / concentration at 0.5 h / concentration at 1 h / concentration at 2 h / concentration at 4 h / concentration at 7.5 h / concentration at 24 h: male, C57BL/6, mouse
# Method: PF670462 (2HCl.0.4 mol. eq. isopropanol) and ZH3-138 (unionised) were administered to male C57BL/6 mice by IV (3 mg/kg) or orally (10 mg/kg). IV administration was achieved by bolus injection into the tail vein of mice using 1 mL syringe with 25G×1″ needle at a volume of 3 mL/kg. Oral administration was achieved by gavage needle at a volume of 3 mL/kg.
# Intravenous (IV) and oral formulations were prepared using the same method. On the day of dosing, each of the solid compound was dissolved in DMSO to which an aqueous solution containing 10% Captisol was added. Hydrochloric acid (1 M) was used to modify pH for the formulation of ZH3-138 with the purpose of solubilising the compound (see Section B for the final pH of each formulation). The formulations of each compound were thoroughly vortexed, producing colourless solutions for all three compounds.
# The systemic exposure of PF670462 and ZH3-138 was studied in non-fasted male C57BL/6 mice weighing 19.8-26.8 g. Mice had access to food and water ad libitum throughout the pre- and post-dose sampling period.
# Compounds were dosed to mice by bolus injection into the lateral tail vein (3 mL/kg) for IV administration and by gavage (3 mL/kg) for oral administration. Following IV and oral administration, blood samples were collected up to 24 h (n=3 mice per time point) with a maximum of three samples from each mouse. Samples were collected via submandibular bleed (approximately 120 μL; conscious sampling). No urine samples were collected as mice were housed in bedded cages.
# Blood was collected into polypropylene Eppendorf tubes containing heparin as anticoagulant and stabilisation cocktail (containing Complete® (a protease inhibitor cocktail) and potassium fluoride) to minimise the potential for ex vivo compound degradation in blood/plasma samples.
# Once collected, blood samples were centrifuged immediately, supernatant plasma was removed, and stored at −80° C. until analysis by LC-MS.
# Plasma samples were quantified against calibration standards prepared by spiking blank mouse plasma (50 μL) with solution standards (10 μL) obtained by diluting a stock solution of test compound (1 mg/mL in DMSO) with 50% acetonitrile in water. Diazepam (10 μL of 5 μg/mL in 50% acetonitrile/water) was added to all plasma calibration standards and samples as an internal standard (IS). The extraction of the test compound and IS from plasma was conducted using protein precipitation with acetonitrile. Protein precipitation was carried out by the addition of acetonitrile followed by vortexing and centrifugation (10,000 rpm) for 3 minutes to obtain supernatant for analysis using the LC-MS conditions described in Table 7.
structure (smiles),measurement,setting,value
"Nc1nccc(-c2c(-c3ccc(F)cc3)ncn2C2CCC(F)(F)CC2)n1 [ZH3-138, 4-(1-(4,4-Difluorocyclohexyl)-4-(4-fluorophenyl)-1H-imidazol-5-yl)pyrimidin-2-amine]",Predicted EH (hepatic extraction ratio),[1]; human liver microsomes,<0.22
same,microsomal CLint at 1 μM,"[1]; human liver microsomes, 1 μM",< 7 µL/min/mg
same,half-life at 1 μM,"[1]; human liver microsomes, 1 μM, 0.4 mg/mL protein, 37° C.",> 255 min
same,Predicted CLblood,"[1]; scaled from human liver microsomes, well stirred model",<5 mL/min/kg
same,CLint scaled at 1 μM,"[1]; scaled from human liver microsomes, read-out: Predicted CLint, in vivo",< 6 mL/min/kg
same,apparent blood clearance,[2],low
same,apparent blood volume of distribution,[2],moderate
same,time post-dose for which plasma concentration was measurable (above LLQ),[2]; 24 h sampling period,≥ 24 h
same,"Plasma Concentration, Individual","[2]; IV 2.69 mg/kg, 0.017 h, 2.69 mg/kg",11.4 µM and 9.81 µM
same,"Plasma Concentration, Individual","[2]; IV 2.69 mg/kg, 0.033 h, 2.69 mg/kg",6.30 µM and 9.37 µM
same,"Plasma Concentration, Individual","[2]; IV 2.69 mg/kg, 0.083 h (actual sampling time was 0.10 h), 2.69 mg/kg",5.94 µM and 5.95 µM
same,"Plasma Concentration, Individual","[2]; IV 2.69 mg/kg, 0.25 h, 2.69 mg/kg",4.68 µM and 4.21 µM
same,"Plasma Concentration, Individual","[2]; IV 2.69 mg/kg, 0.5 h, 2.69 mg/kg",4.12 µM and 4.28 µM
same,"Plasma Concentration, Individual","[2]; IV 2.69 mg/kg, 1.0 h, 2.69 mg/kg",2.73 µM and 3.70 µM
same,"Plasma Concentration, Individual","[2]; IV 2.69 mg/kg, 2.0 h, 2.69 mg/kg",5.24 µM and 4.00 µM
same,"Plasma Concentration, Individual","[2]; IV 2.69 mg/kg, 4.0 h, 2.69 mg/kg",3.53 µM and 3.63 µM
same,"Plasma Concentration, Individual","[2]; IV 2.69 mg/kg, 7.5 h, 2.69 mg/kg",1.77 µM and 1.54 µM
same,"Plasma Concentration, Individual","[2]; IV 2.69 mg/kg, 24 h, 2.69 mg/kg",0.0287 µM and 0.0211 µM
same,"Plasma Concentration, Individual","[2]; oral 8.96 mg/kg, 0.25 h, 8.96 mg/kg",14.7 µM and 8.96 µM
same,"Plasma Concentration, Individual","[2]; oral 8.96 mg/kg, 0.50 h, 8.96 mg/kg",11.3 µM and 22.5 µM
same,"Plasma Concentration, Individual","[2]; oral 8.96 mg/kg, 1.0 h, 8.96 mg/kg",16.2 µM and 14.4 µM
same,"Plasma Concentration, Individual","[2]; oral 8.96 mg/kg, 2.0 h, 8.96 mg/kg",17.4 µM and 17.7 µM
same,"Plasma Concentration, Individual","[2]; oral 8.96 mg/kg, 4.0 h, 8.96 mg/kg",10.2 µM and 15.1 µM
same,"Plasma Concentration, Individual","[2]; oral 8.96 mg/kg, 7.5 h, 8.96 mg/kg",5.97 µM and 8.71 µM
same,"Plasma Concentration, Individual","[2]; oral 8.96 mg/kg, 24 h, 8.96 mg/kg",0.0400 µM and 0.0758 µM
same,time of apparent secondary peak in concentration-time profile,[2]; post-dose,2 h
same,concentration at 0.017 h,"[2]; plasma, iv, 2.69 mg/kg, IV 2.69 mg/kg, 0.017 h, read-out: Plasma Concentration, Individual",11.1 µM
same,concentration at 0.017 h,"[2]; plasma, iv, 2.69 mg/kg, IV 2.69 mg/kg, 0.017 h, read-out: Plasma Concentration, Mean",10.8 µM
same,concentration at 0.033 h,"[2]; plasma, iv, 2.69 mg/kg, IV 2.69 mg/kg, 0.033 h, read-out: Plasma Concentration, Individual",7.86 µM
same,concentration at 0.033 h,"[2]; plasma, iv, 2.69 mg/kg, IV 2.69 mg/kg, 0.033 h, read-out: Plasma Concentration, Mean",7.84 µM
same,concentration at 0.083 h,"[2]; plasma, iv, 2.69 mg/kg, IV 2.69 mg/kg, 0.083 h (actual sampling time was 0.10 h), read-out: Plasma Concentration, Individual",5.29 µM
same,concentration at 0.083 h,"[2]; plasma, iv, 2.69 mg/kg, IV 2.69 mg/kg, 0.083 h (actual sampling time was 0.10 h), read-out: Plasma Concentration, Mean",5.73 µM
same,concentration at 0.25 h,"[2]; plasma, iv, 2.69 mg/kg, IV 2.69 mg/kg, 0.25 h, read-out: Plasma Concentration, Individual",5.04 µM
same,concentration at 0.25 h,"[2]; plasma, iv, 2.69 mg/kg, IV 2.69 mg/kg, 0.25 h, read-out: Plasma Concentration, Mean",4.65 µM
same,concentration at 0.5 h,"[2]; plasma, iv, 2.69 mg/kg, IV 2.69 mg/kg, 0.5 h, read-out: Plasma Concentration, Individual",4.01 µM
same,concentration at 0.5 h,"[2]; plasma, iv, 2.69 mg/kg, IV 2.69 mg/kg, 0.5 h, read-out: Plasma Concentration, Mean",4.14 µM
same,concentration at 1 h,"[2]; plasma, iv, 2.69 mg/kg, IV 2.69 mg/kg, 1.0 h, read-out: Plasma Concentration, Individual",2.93 µM
same,concentration at 1 h,"[2]; plasma, iv, 2.69 mg/kg, IV 2.69 mg/kg, 1.0 h, read-out: Plasma Concentration, Mean",3.12 µM
same,concentration at 2 h,"[2]; plasma, iv, 2.69 mg/kg, IV 2.69 mg/kg, 2.0 h, read-out: Plasma Concentration, Individual",4.42 µM
same,concentration at 2 h,"[2]; plasma, iv, 2.69 mg/kg, IV 2.69 mg/kg, 2.0 h, read-out: Plasma Concentration, Mean",4.55 µM
same,concentration at 4 h,"[2]; plasma, iv, 2.69 mg/kg, IV 2.69 mg/kg, 4.0 h, read-out: Plasma Concentration, Individual",3.74 µM
same,concentration at 4 h,"[2]; plasma, iv, 2.69 mg/kg, IV 2.69 mg/kg, 4.0 h, read-out: Plasma Concentration, Mean",3.63 µM
same,concentration at 7.5 h,"[2]; plasma, iv, 2.69 mg/kg, IV 2.69 mg/kg, 7.5 h, read-out: Plasma Concentration, Individual",1.84 µM
same,concentration at 7.5 h,"[2]; plasma, iv, 2.69 mg/kg, IV 2.69 mg/kg, 7.5 h, read-out: Plasma Concentration, Mean",1.72 µM
same,concentration at 24 h,"[2]; plasma, iv, 2.69 mg/kg, IV 2.69 mg/kg, 24 h, read-out: Plasma Concentration, Individual",23.7 nM
same,concentration at 24 h,"[2]; plasma, iv, 2.69 mg/kg, IV 2.69 mg/kg, 24 h, read-out: Plasma Concentration, Mean",24.5 nM
same,concentration at 0.25 h,"[2]; plasma, po, 8.96 mg/kg, oral 8.96 mg/kg, 0.25 h, read-out: Plasma Concentration, Individual",12.1 µM
same,concentration at 0.25 h,"[2]; plasma, po, 8.96 mg/kg, oral 8.96 mg/kg, 0.25 h, read-out: Plasma Concentration, Mean",11.9 µM
same,concentration at 0.5 h,"[2]; plasma, po, 8.96 mg/kg, oral 8.96 mg/kg, 0.50 h, read-out: Plasma Concentration, Individual",13.7 µM
same,concentration at 0.5 h,"[2]; plasma, po, 8.96 mg/kg, oral 8.96 mg/kg, 0.50 h, read-out: Plasma Concentration, Mean",15.8 µM
same,concentration at 1 h,"[2]; plasma, po, 8.96 mg/kg, oral 8.96 mg/kg, 1.0 h, read-out: Plasma Concentration, Individual",13.9 µM
same,concentration at 1 h,"[2]; plasma, po, 8.96 mg/kg, oral 8.96 mg/kg, 1.0 h, read-out: Plasma Concentration, Mean",14.8 µM
same,concentration at 2 h,"[2]; plasma, po, 8.96 mg/kg, oral 8.96 mg/kg, 2.0 h, read-out: Plasma Concentration, Individual",13.8 µM
same,concentration at 2 h,"[2]; plasma, po, 8.96 mg/kg, oral 8.96 mg/kg, 2.0 h, read-out: Plasma Concentration, Mean",16.3 µM
same,concentration at 4 h,"[2]; plasma, po, 8.96 mg/kg, oral 8.96 mg/kg, 4.0 h, read-out: Plasma Concentration, Individual",11 µM
same,concentration at 4 h,"[2]; plasma, po, 8.96 mg/kg, oral 8.96 mg/kg, 4.0 h, read-out: Plasma Concentration, Mean",12.1 µM
same,concentration at 7.5 h,"[2]; plasma, po, 8.96 mg/kg, oral 8.96 mg/kg, 7.5 h, read-out: Plasma Concentration, Individual",6.59 µM
same,concentration at 7.5 h,"[2]; plasma, po, 8.96 mg/kg, oral 8.96 mg/kg, 7.5 h, read-out: Plasma Concentration, Mean",7.09 µM
same,concentration at 24 h,"[2]; plasma, po, 8.96 mg/kg, oral 8.96 mg/kg, 24 h, read-out: Plasma Concentration, Individual",51.3 nM
same,concentration at 24 h,"[2]; plasma, po, 8.96 mg/kg, oral 8.96 mg/kg, 24 h, read-out: Plasma Concentration, Mean",55.7 nM
same,half-life,"[2]; mouse, plasma, read-out: apparent half-life (converted)",~180 min
